Measurements reported in ChEMBL document CHEMBL1201862, “PubChem BioAssay data set” (2004).
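Test compounds were applied to cells in 96-well plates for 48 hours at 5 doses. GI50 marks 50% less growth.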 Calls of active or inactive are those of the source. Cut-off read from the data, not from the text of the source: active = GI50 up to about 1.1 µM and inactive = higher.

What was measured:
Experiment in all cases: NCI tumour cell line growth inhibition, 48 h
A549 = test system: A549
RPMI-8226 = test system: RPMI-8226
HCC 2998 = test system: HCC 2998
OVCAR-8 = test system: OVCAR-8
UACC-62 = test system: UACC-62
Malme-3M = test system: Malme-3M
SF-539 = test system: SF-539
UO-31 = test system: UO-31
A498 = test system: A498
HOP-92 = test system: HOP-92
RXF 393 = test system: RXF 393
HOP-18 = test system: HOP-18
SF-268 = test system: SF-268
LXFL 529 = test system: LXFL 529
IGROV-1 = test system: IGROV-1
SNB-19 = test system: SNB-19
DMS-114 = test system: DMS-114
ACHN = test system: ACHN
HCT-15 = test system: HCT-15
KM-20L2 = test system: KM-20L2
SK-MEL-5 = test system: SK-MEL-5
SW-620 = test system: SW-620
OVCAR-4 = test system: OVCAR-4
CCRF-CEM = test system: CCRF-CEM
HCT-116 = test system: HCT-116
786-0 = test system: 786-0
TK-10 = test system: TK-10
M14 = test system: M14
SK-MEL-28 = test system: SK-MEL-28
RXF 631 = test system: RXF 631
MOLT-4 = test system: MOLT-4
OVCAR-3 = test system: OVCAR-3
SN12C = test system: SN12C
K562 = test system: K562
OVCAR-5 = test system: OVCAR-5
EKVX = test system: EKVX
KM12 = test system: KM12
UACC-257 = test system: UACC-257
DLD-1 = test system: DLD-1
HT-29 = test system: HT-29
M19-MEL = test system: M19-MEL
NCI-H460 = test system: NCI-H460
U-251 = test system: U-251
NCI-H23 = test system: NCI-H23
SK-MEL-2 = test system: SK-MEL-2
SF-295 = test system: SF-295
SNB-78 = test system: SNB-78
HL-60 = test system: HL-60
COLO 205 = test system: COLO 205
CAKI-1 = test system: CAKI-1
SK-OV-3 = test system: SK-OV-3
HOP-62 = test system: HOP-62
NCI-H522 = test system: NCI-H522
NCI-H226 = test system: NCI-H226
LOX IMVI = test system: LOX IMVI
DMS-273 = test system: DMS-273
SNB-75 = test system: SNB-75

`CC12CC[C@@H](C(C)(C)O)C1[C@@H](O)CC1(C)C2CCC2[C@@]3(C)CC[C@H](O)C(C)(C)C3C(O)C[C@]21C` (some centres undefined) was tested, and the GI50 (A549) was 11.5 µM (inactive), the GI50 (RPMI-8226) was 21.3 µM (inactive) and the GI50 (HCC 2998) was 16.3 µM (inactive). The GI50 (OVCAR-8) was 16.5 µM (inactive), the GI50 (UACC-62) was 15.6 µM (inactive) and the GI50 (Malme-3M) was 13.8 µM (inactive). For the same compound, the GI50 (SF-539) was 15.8 µM (inactive), the GI50 (UO-31) was 21.6 µM (inactive) and the GI50 (A498) was 13.5 µM (inactive). The GI50 (HOP-92) was 17.4 µM (inactive), the GI50 (RXF 393) was 6.85 µM (inactive) and the GI50 (HOP-18) was 24.6 µM (inactive). The GI50 (SF-268) was 14.9 µM (inactive), the GI50 (LXFL 529) was 14 µM (inactive) and the GI50 (IGROV-1) was 17.7 µM (inactive). The GI50 (SNB-19) was 21.1 µM (inactive), the GI50 (DMS-114) was 13.6 µM (inactive) and the GI50 (ACHN) was 13.1 µM (inactive). For the same compound, the GI50 (HCT-15) was 11.5 µM, the GI50 (KM-20L2) was 10 µM (inactive) and the GI50 (SK-MEL-5) was 4.07 µM (inactive). For the same compound, the GI50 (SW-620) was 18 µM (inactive), the GI50 (OVCAR-4) was 13.1 µM (inactive) and the GI50 (CCRF-CEM) was 11.3 µM (inactive). For the same compound, the GI50 (HCT-116) was 11.4 µM (inactive), the GI50 (786-0) was 12.1 µM (inactive) and the GI50 (TK-10) was 16.4 µM (inactive). The GI50 (M14) was 19.9 µM (inactive), the GI50 (SK-MEL-28) was 16.8 µM (inactive) and the GI50 (RXF 631) was 18.5 µM (inactive). For the same compound, the GI50 (MOLT-4) was 4.07 µM (inactive), the GI50 (OVCAR-3) was 16.8 µM (inactive) and the GI50 (SN12C) was 13.4 µM (inactive). The GI50 (K562) was 11.8 µM (inactive), the GI50 (OVCAR-5) was 17.5 µM (inactive) and the GI50 (EKVX) was 13.2 µM (inactive). For the same compound, the GI50 (KM12) was 14.6 µM (inactive), the GI50 (UACC-257) was > 10 µM (inactive) and the GI50 (DLD-1) was 19.8 µM (inactive). The GI50 (HT-29) was 12.6 µM (inactive), the GI50 (M19-MEL) was 24.3 µM (inactive) and the GI50 (NCI-H460) was 15.3 µM (inactive). For the same compound, the GI50 (U-251) was 13.4 µM (inactive), the GI50 (NCI-H23) was 16.1 µM (inactive) and the GI50 (SK-MEL-2) was 18.7 µM (inactive). The GI50 (SF-295) was 18.3 µM (inactive), the GI50 (SNB-78) was 14.6 µM (inactive) and the GI50 (HL-60) was 5.27 µM (inactive). For the same compound, the GI50 (COLO 205) was 15.6 µM (inactive).

For `O=C(O)C(CS)NCc1c2ccccc2[n+]([O-])c2ccccc12` (centres undefined), the GI50 (A549) was > 100 µM (inactive), the GI50 (RPMI-8226) was 26.3 µM (inactive) and the GI50 (HCC 2998) was 36.1 µM (inactive). For the same compound, the GI50 (OVCAR-8) was 30.4 µM (inactive), the GI50 (UACC-62) was 47.4 µM (inactive) and the GI50 (CAKI-1) was 83.6 µM (inactive). For the same compound, the GI50 (Malme-3M) was 63.1 µM (inactive), the GI50 (SK-OV-3) was > 100 µM (inactive) and the GI50 (HOP-62) was 66.1 µM (inactive). For the same compound, the GI50 (NCI-H522) was 94 µM (inactive), the GI50 (UO-31) was 17.5 µM (inactive) and the GI50 (A498) was 68.7 µM (inactive). The GI50 (HOP-92) was 2.49 µM (inactive), the GI50 (HOP-18) was 97.1 µM (inactive) and the GI50 (SF-268) was 23 µM (inactive). The GI50 (LXFL 529) was 23.8 µM (inactive), the GI50 (IGROV-1) was 33.2 µM (inactive) and the GI50 (SNB-19) was 38 µM (inactive). The GI50 (NCI-H226) was 39.9 µM (inactive), the GI50 (LOX IMVI) was 28.8 µM (inactive) and the GI50 (DMS-114) was 22.8 µM (inactive). The GI50 (DMS-273) was 31.6 µM (inactive), the GI50 (ACHN) was 33.4 µM (inactive) and the GI50 (HCT-15) was 22.8 µM. For the same compound, the GI50 (KM-20L2) was 37.2 µM (inactive), the GI50 (SK-MEL-5) was 30.7 µM (inactive) and the GI50 (SW-620) was 27.4 µM (inactive). The GI50 (OVCAR-4) was 24.9 µM (inactive), the GI50 (CCRF-CEM) was 21.5 µM (inactive) and the GI50 (HCT-116) was 5.87 µM (inactive). The GI50 (786-0) was 37.2 µM (inactive), the GI50 (TK-10) was 95.1 µM (inactive) and the GI50 (M14) was 46.1 µM (inactive). For the same compound, the GI50 (SK-MEL-28) was 35.2 µM (inactive), the GI50 (RXF 631) was 37.6 µM (inactive) and the GI50 (MOLT-4) was 13.8 µM (inactive). The GI50 (OVCAR-3) was 81.7 µM (inactive), the GI50 (SN12C) was 34.4 µM (inactive) and the GI50 (K562) was 20.5 µM (inactive). The GI50 (OVCAR-5) was > 100 µM (inactive), the GI50 (EKVX) was 54.3 µM (inactive) and the GI50 (KM12) was 31.2 µM (inactive). The GI50 (UACC-257) was > 100 µM (inactive), the GI50 (DLD-1) was 31.6 µM (inactive) and the GI50 (HT-29) was 37.8 µM (inactive). For the same compound, the GI50 (M19-MEL) was 33.6 µM (inactive), the GI50 (NCI-H460) was 41.4 µM (inactive) and the GI50 (U-251) was 45.4 µM (inactive). For the same compound, the GI50 (NCI-H23) was 31 µM (inactive), the GI50 (SNB-75) was 24 µM (inactive) and the GI50 (SK-MEL-2) was 45.6 µM (inactive). For the same compound, the GI50 (SF-295) was 58.1 µM (inactive), the GI50 (SNB-78) was 38 µM (inactive) and the GI50 (HL-60) was 23.8 µM (inactive). The GI50 (COLO 205) was 78.3 µM (inactive).
